Assay results reported in patent US10336732B2, “1-heterocyclyl isochromanyl compounds and analogs for treating CNS disorders” (Sunovion Pharmaceuticals Inc., priority 2015, dated 2019).

Test system: mice
Assay: Neuropharmacological assay (SmartCube), behavioral signature of compound-treated mice
Format: in vivo
Conditions: i.p. 15 min before behavioral test, most efficacious dose(s) of 3 doses
In short: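 Read-out is an automated video-based behavioral signature, scored as per-class probabilities (e.g., anxiolytic, antidepressant) against reference compounds. Dosing was i.p. at three doses, 15 min pre-test, in NMP, polyethylene glycol and propylene glycol. Values shown are from the most efficacious dose(s).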

| Structure (SMILES) | AD: ADHD (probability that behavioral signature matches class) | AG: analgesic (probability that behavioral signature matches class) | AX: anxiolytic (probability that behavioral signature matches class) | CE: cognitive enhancer (probability that behavioral signature matches class) | DP: anti-depressant (probability that behavioral signature matches class) | HA: hallucinogen (probability that behavioral signature matches class) | MS: mood stabilizer (probability that behavioral signature matches class) | PS: anti-psychotic (probability that behavioral signature matches class) | SD: sedative hypnotic (probability that behavioral signature matches class) | UN: uncharacterized CNS activity (probability that behavioral signature matches class) | XG: anxiogenic (probability that behavioral signature matches class) |
| --- | --- | --- | --- | --- | --- | --- | --- | --- | --- | --- | --- |
| Fc1ccc2c(c1)CCO[C@@H]2[C@@H]1CCCN1 [Compound I-10, (S)-2-((S)-6-fluoroisochroman-1-yl)pyrrolidine] | + (LOQ ≤ + <5%) | ++ (5% ≤ ++ <25%) | ++ (5% ≤ ++ <25%) | ++ (5% ≤ ++ <25%) | ++ (5% ≤ ++ <25%) | + (LOQ ≤ + <5%) | + (LOQ ≤ + <5%) | ++ (5% ≤ ++ <25%) | + (LOQ ≤ + <5%) | + (LOQ ≤ + <5%) | + (LOQ ≤ + <5%) |
| Cc1cccc2c1[C@@H]([C@H]1CCCN1)OCCC2 [Compound I-104, (R)-2-((S)-9-methyl-1,3,4,5-tetrahydrobenzo[c]oxepin-1-yl)pyrrolidine] | + (LOQ ≤ + <5%) | +++ (25% ≤ +++ <50%) | ++ (5% ≤ ++ <25%) | + (LOQ ≤ + <5%) | ++ (5% ≤ ++ <25%) | + (LOQ ≤ + <5%) | + (LOQ ≤ + <5%) | + (LOQ ≤ + <5%) | ++ (5% ≤ ++ <25%) | ++ (5% ≤ ++ <25%) | + (LOQ ≤ + <5%) |
| c1ccc2c(c1)CCO[C@@H]2[C@@H]1COCCN1 [Compound I-75, (S)-3-((S)-isochroman-1-yl)morpholine] | + (LOQ ≤ + <5%) | + (LOQ ≤ + <5%) | ++ (5% ≤ ++ <25%) | ++ (5% ≤ ++ <25%) | +++ (25% ≤ +++ <50%) | + (LOQ ≤ + <5%) | ++ (5% ≤ ++ <25%) | ++ (5% ≤ ++ <25%) | ++ (5% ≤ ++ <25%) | + (LOQ ≤ + <5%) | + (LOQ ≤ + <5%) |
| c1cc(-c2ccc3c(c2)CCO[C@@H]3[C@@H]2CCCN2)on1 [Compound I-55, 5-((S)-1-((S)-pyrrolidin-2-yl)isochroman-6-yl)isoxazole] | + (LOQ ≤ + <5%) | + (LOQ ≤ + <5%) | + (LOQ ≤ + <5%) | + (LOQ ≤ + <5%) | + (LOQ ≤ + <5%) | + (LOQ ≤ + <5%) | + (LOQ ≤ + <5%) | + (LOQ ≤ + <5%) | + (LOQ ≤ + <5%) | + (LOQ ≤ + <5%) | + (LOQ ≤ + <5%) |
| COc1cccc2c1[C@H]([C@@H]1CCCN1)OCC2 [Compound I-47, (S)-2-((R)-8-methoxyisochroman-1-yl)pyrrolidine] | + (LOQ ≤ + <5%) | + (LOQ ≤ + <5%) | ++ (5% ≤ ++ <25%) | + (LOQ ≤ + <5%) | + (LOQ ≤ + <5%) | + (LOQ ≤ + <5%) | + (LOQ ≤ + <5%) | + (LOQ ≤ + <5%) | + (LOQ ≤ + <5%) | + (LOQ ≤ + <5%) | + (LOQ ≤ + <5%) |
| N#Cc1ccc2c(c1)CCO[C@@H]2[C@H]1CCCN1 [Compound I-46, (S)-1-((R)-pyrrolidin-2-yl)isochroman-6-carbonitrile] | + (LOQ ≤ + <5%) | ++ (5% ≤ ++ <25%) | ++ (5% ≤ ++ <25%) | ++ (5% ≤ ++ <25%) | ++ (5% ≤ ++ <25%) | + (LOQ ≤ + <5%) | + (LOQ ≤ + <5%) | ++++ (50% ≤ ++++) | ++ (5% ≤ ++ <25%) | + (LOQ ≤ + <5%) | + (LOQ ≤ + <5%) |
| CC1(C)CN[C@@H]([C@H]2OCCc3ccccc32)C1 [Compound I-62, (R)-2-((S)-isochroman-1-yl)-4,4-dimethylpyrrolidine] | + (LOQ ≤ + <5%) | ++ (5% ≤ ++ <25%) | ++ (5% ≤ ++ <25%) | +++ (25% ≤ +++ <50%) | ++ (5% ≤ ++ <25%) | + (LOQ ≤ + <5%) | + (LOQ ≤ + <5%) | ++ (5% ≤ ++ <25%) | + (LOQ ≤ + <5%) | + (LOQ ≤ + <5%) | + (LOQ ≤ + <5%) |
| N#Cc1ccc2c(c1)[C@@H]([C@@H]1CCCN1)OCC2 [Compound I-39, (S)-1-((S)-pyrrolidin-2-yl)isochroman-7-carbonitrile] | + (LOQ ≤ + <5%) | ++ (5% ≤ ++ <25%) | ++ (5% ≤ ++ <25%) | ++ (5% ≤ ++ <25%) | + (LOQ ≤ + <5%) | + (LOQ ≤ + <5%) | + (LOQ ≤ + <5%) | + (LOQ ≤ + <5%) | + (LOQ ≤ + <5%) | ++ (5% ≤ ++ <25%) | + (LOQ ≤ + <5%) |
| Fc1ccc2c(c1)[C@H](F)CO[C@H]2[C@@H]1CCCN1 [Compound I-137, (S)-2-((1R,4S)-4,6-difluoroisochroman-1-yl)pyrrolidine] | + (LOQ ≤ + <5%) | ++ (5% ≤ ++ <25%) | ++ (5% ≤ ++ <25%) | ++ (5% ≤ ++ <25%) | ++ (5% ≤ ++ <25%) | + (LOQ ≤ + <5%) | ++ (5% ≤ ++ <25%) | ++++ (50% ≤ ++++) | ++ (5% ≤ ++ <25%) | ++ (5% ≤ ++ <25%) | + (LOQ ≤ + <5%) |
| c1ccc2c(c1)CCO[C@H]2[C@@H]1CCN1 [Compound I-80, (S)-2-((R)-iso-chroman-1-yl)azetidine] | + (LOQ ≤ + <5%) | ++ (5% ≤ ++ <25%) | ++ (5% ≤ ++ <25%) | ++ (5% ≤ ++ <25%) | +++ (25% ≤ +++ <50%) | + (LOQ ≤ + <5%) | ++ (5% ≤ ++ <25%) | ++ (5% ≤ ++ <25%) | + (LOQ ≤ + <5%) | +++ (25% ≤ +++ <50%) | + (LOQ ≤ + <5%) |
| c1ccc2c(c1)CCCO[C@@H]2[C@H]1CCCN1 [Compound I-99, (R)-2-((S)-1,3,4,5-tetrahydrobenzo[c]oxepin-1-yl)pyrrolidine] | + (LOQ ≤ + <5%) | ++ (5% ≤ ++ <25%) | ++ (5% ≤ ++ <25%) | ++ (5% ≤ ++ <25%) | +++ (25% ≤ +++ <50%) | + (LOQ ≤ + <5%) | + (LOQ ≤ + <5%) | ++ (5% ≤ ++ <25%) | ++ (5% ≤ ++ <25%) | + (LOQ ≤ + <5%) | + (LOQ ≤ + <5%) |
